Test results published in PubChem BioAssay AID2060506 (Molecular Pharmacology Branch, DTP, NCI, 2025).
“And” between values parts separate entries of the source, which are not always exact repeats. Identical values can stand only once. Blank lines part the entries; values can stand above or below the compound they belong to.

System: 598228-144-R-J1-PDC complex spheroid viability
Test: Anticancer human tumor 598228-144-R-J1-PDC patient-derived serous endometrial adenocarcinoma cell line growth inhibition [GQUAD]
Conditions: for viability, T/C: stronger effect = lower value
Source text: DNA G-quadruplex Stabilizer Agents in Combinations in Complex Spheroids
A high-throughput screen of multi-cell type tumor spheroids was designed to identify active combinations of DNA G-quadruplex stabilizer agents and targeted small molecules. Complex spheroids include a stromal component modeled by human endothelial cells (HUVEC) and fibroblasts modeled by human mesenchymal stem cells (MSCs). The concentration ranges selected for each drug and investigational agent were based upon clinically achievable concentrations if the clinical Cmax of the agent was known.
Compounds. The drugs and investigational agents: pidnarulex (CX-5461; NSC782164), APTO-253 (NSC789042), BRACO-19 (NSC847499), peposertib (NSC802822), ceralasertib (NSC780249), elimusertib (NSC800525), camonsertib (NSC841442), AZD-1390 (NSC803789), olaparib (NSC753686), talazoparib (NSC767125), ART-558 (NSC835418), sotorasib (NSC818433), MRTX-1133 (NSC836407), SN-38 (NSC673596), topotecan (NSC609699), etoposide (NSC141540), doxorubicin (NSC123127), gemcitabine (NSC613327), 5-fluorouracil (NSC19893), paclitaxel (NSC125973), vemurafenib (NSC761431), panobinostat (NSC761190), R-306465 (JNJ-16241199; NSC773264), adavosertib (NSC754352), TP-3654 (NSC805149), carboplatin (NSC241240), KSQ-4279 (NSC840948), and staurosporine (NSC755774) were obtained from the National Cancer Institute (NCI) Developmental Therapeutics Program Chemical Repository (34). The FDA-approved anticancer drug set is available from the NCI Developmental Therapeutics Program. […] The stock solutions were prepared in dimethyl sulfoxide (DMSO, Sigma-Aldrich, St. Louis, MO, cat. D2650) at 800-fold the tested concentration and stored at -70 degrees C prior to their use. All drugs and investigational agents were tested over a range starting from a high concentration at or near the clinical Cmax and decreasing in half-log increments. If the clinical Cmax for an agent had not been determined, the highest concentration tested was 10 microM.
2.3 Cell Culture. All cells were maintained in an incubator at 37 degrees C and 5% CO2 with 95% humidity. The PDC lines were cultured according to standard operating procedures established by the NCI PDMR. All PDCs were thawed and cultured in Matrigel-coated flasks prepared with a working solution of 1X Ham's F-12 nutrient mix, without supplementation (Invitrogen, cat. 11765054), 100 U/mL penicillin-streptomycin (Invitrogen, cat. 15140122), and 2.5% Matrigel (Corning Inc., cat. 354248) for the first three passages. The 857933-349-R-J2-PDC line was cultured in 6C/Colon 1B media, which includes advanced DMEM/F-12 (Thermo Fisher Scientific, cat. 12634028), 10 mM HEPES (Thermo Fisher Scientific, cat. 15630080), 1X GlutaMAX supplement (Thermo Fisher Scientific, cat. 35050061), 0.1 mg/mL primocin (InvivoGen, cat. ant-pm-2), 10% defined fetal bovine serum, heat inactivated (HyClone Laboratories Inc., cat. SH30070.03HI), 50% L-WRN conditioned media (ATCC, cat. CRL-3276), 1.25 mM N-Acetyl-L-cysteine (Sigma-Aldrich, cat. A9165), 10 mM nicotinamide (Sigma-Aldrich, cat. N0636), 1X B-27 supplement (Thermo Fisher Scientific, cat. 17504044), 1X N-2 supplement (Thermo Fisher Scientific, cat. 17502048), 10 microM Y-27632 dihydrochloride (Tocris Bioscience, cat. 1254), and 50 ng/mL human EGF recombinant protein (Thermo Fisher Scientific, cat. PHG0311). The 485176-168-R4-J1-PDC line was cultured in Panc media, which includes all 6C/Colon 1B media components plus 100 ng/mL human FGF-10 (Thermo Fisher Scientific, cat. 100-26), 500 nM SB-431542 (Selleckchem, cat. S1067), and gastrin (Tocris, cat. 3006).
[…]
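Also: spheroids exposed to the agents for one week before reading.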
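For viability, T/C in this document: percent of vehicle DMSO control viability so 100% = untreated growth.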

IC50 (compound alone, run of 03/26/2024): > 10 µM
SMILES: CN(C)c1ccc(Nc2c3ccc(NC(=O)CCN4CCCC4)cc3nc3cc(NC(=O)CCN4CCCC4)ccc23)cc1
viability, T/C (compound 0.0316 µM): 102% [middle of 12 runs]
viability, T/C (compound 0.1 µM): 106% [middle of 12 runs]
viability, T/C (compound 1 µM): 101% [middle of 12 runs]
viability, T/C (compound 3.16 µM): 99.7% [middle of 12 runs]
viability, T/C (compound 10 µM): 90% [middle of 12 runs]

IC50 (curve of compound): 0.755 µM and 0.646 µM and 0.915 µM
SMILES: COc1cccc2c1C(=O)c1c(O)c3c(c(O)c1C2=O)CC(O)(C(=O)CO)CC3OC1CC(N)C(O)C(C)O1 (stereo unspecified)
viability, T/C (compound 0.0316 µM): 93.1% and 76% and 90.5%
viability, T/C (compound 0.1 µM): 76.3% and 67.8% and 76.2%
viability, T/C (compound 0.316 µM): 78.5% and 73.6% and 72.8%
viability, T/C (compound 1 µM): 41.3% and 36.2% and 49.6%
viability, T/C (compound 3.16 µM): 1.91% and 2.01% and 1.77%
viability, T/C (compound 10 µM): 0.43% and 0.5% and 0.55%

SMILES: C=CCn1c(=O)c2cnc(Nc3ccc(N4CCN(C)CC4)cc3)nc2n1-c1cccc(C(C)(C)O)n1
viability, T/C (compound 0.0316 µM): 105% and 84.5% and 97.9%
viability, T/C (compound 0.1 µM): 81.6% and 94.9% and 101%
viability, T/C (compound 0.316 µM): 83% and 52.6% and 63%
viability, T/C (compound 1 µM): 46.9% and 51.9% and 42%
viability, T/C (compound 3.16 µM): 50.9% and 46.4% and 62.5%
viability, T/C (compound 10 µM): 45.4% and 49.7% and 66.2%

SMILES: CC(C)(O)C1CCC(Nc2ccc3ncc(-c4cccc(C(F)(F)F)c4)n3n2)CC1 (stereo unspecified) + Cc1[nH]c2ccc(F)cc2c1-c1nc2c3cccnc3c3ncccc3c2[nH]1
IC50 (curve of first compound, second compound 0.0316 µM): 2.4 µM
IC50 (curve of first compound, second compound 0.1 µM): 2.37 µM
IC50 (curve of first compound, second compound 0.316 µM): 2.24 µM
IC50 (curve of first compound, second compound 1 µM): 1.29 µM
IC50 (curve of first compound, second compound 3.16 µM): < 0.0316 µM
IC50 (curve of first compound, second compound 10 µM): 1.33 µM
viability, T/C (second compound 0.0316 µM, first compound 0.0316 µM): 106%
viability, T/C (second compound 0.0316 µM, first compound 0.1 µM): 112%
viability, T/C (second compound 0.0316 µM, first compound 0.316 µM): 109%
viability, T/C (second compound 0.0316 µM, first compound 1 µM): 86.5%
viability, T/C (second compound 0.0316 µM, first compound 3.16 µM): 38.8%
viability, T/C (second compound 0.0316 µM, first compound 10 µM): 30.7%
viability, T/C (second compound 0.1 µM, first compound 0.0316 µM): 133%
viability, T/C (second compound 0.1 µM, first compound 0.1 µM): 121%
viability, T/C (second compound 0.1 µM, first compound 0.316 µM): 103%
viability, T/C (second compound 0.1 µM, first compound 1 µM): 95.3%
viability, T/C (second compound 0.1 µM, first compound 3.16 µM): 32.2%
viability, T/C (second compound 0.1 µM, first compound 10 µM): 30.1%
viability, T/C (second compound 0.316 µM, first compound 0.0316 µM): 77.5%
viability, T/C (second compound 0.316 µM, first compound 0.1 µM): 85.5%
viability, T/C (second compound 0.316 µM, first compound 0.316 µM): 81.3%
viability, T/C (second compound 0.316 µM, first compound 1 µM): 93.8%
viability, T/C (second compound 0.316 µM, first compound 3.16 µM): 35.2%
viability, T/C (second compound 0.316 µM, first compound 10 µM): 26.3%
viability, T/C (second compound 1 µM, first compound 0.0316 µM): 58.7%
viability, T/C (second compound 1 µM, first compound 0.1 µM): 67%
viability, T/C (second compound 1 µM, first compound 0.316 µM): 57.5%
viability, T/C (second compound 1 µM, first compound 1 µM): 55.8%
viability, T/C (second compound 1 µM, first compound 3.16 µM): 30.6%
viability, T/C (second compound 1 µM, first compound 10 µM): 24%
viability, T/C (second compound 3.16 µM, first compound 0.0316 µM): 30.7%
viability, T/C (second compound 3.16 µM, first compound 0.1 µM): 40.9%
viability, T/C (second compound 3.16 µM, first compound 0.316 µM): 38.8%
viability, T/C (second compound 3.16 µM, first compound 1 µM): 39.7%
viability, T/C (second compound 3.16 µM, first compound 3.16 µM): 23.1%
viability, T/C (second compound 3.16 µM, first compound 10 µM): 27.7%
viability, T/C (second compound 10 µM, first compound 0.0316 µM): 76.4%
viability, T/C (second compound 10 µM, first compound 0.1 µM): 52.6%
viability, T/C (second compound 10 µM, first compound 0.316 µM): 63.2%
viability, T/C (second compound 10 µM, first compound 1 µM): 57.2%
viability, T/C (second compound 10 µM, first compound 3.16 µM): 25.9%
viability, T/C (second compound 10 µM, first compound 10 µM): 30.7%
